Assay results taken from EP1100539B1, “COMBINATION OF ACTIVE SUBSTANCES, ESPECIALLY FOR THE PROPHYLAXIS AND THERAPY OF ISCHAEMIC ORGANIC LESIONS AND REPERFUSION SYNDROMES” (Vascular Biotech GmbH, priority 1998, dated 2000).
“And” between values parts separate entries of the source, which are not always exact repeats. Equal values may be shown once.

Test system: Meerschweinchenherzen
Assay: Working guinea pig heart, ischaemia/reperfusion with activated PMN and platelets (Versuchsgruppe 1)
Parameters: species or system Meerschweinchen
Details: for Herzleistung [% der initialen Leistung] / Interstitielles Volumen / Koronarfluß [% des Basalflusses]: flavone derivative 3*10^-5 M, individual hearts; for protektive Wirkung: ischaemic heart, Versuchsgruppe 1
Description: Pathogene Wirkung von gleichzeitig aktivierten PMN und Thrombozyten im ischämischen Herzen. Als Studienobjekt dienten arbeitende, also Volumen gegen bestimmte Drucke auswerfende Meerschweinchenherzen. […] Thrombin, FMLP ([…]-Formyl-[…]) und […] Interaktion der Blutzellen mit dem koronaren Endothel bei diesen Versuchen. Tabelle 3: ^i Als Blutzellpräparate wurden eingesetzt: a) hochreine PMN (1-2*10^5/ml), […] Vorinkubation mit 100 μM […]) bzw. […] von PMN und TASS (bzw. T) in jeweils analogen Konzentrationen. Tabelle 3 gibt die unter […] bei […] von PMN und Thrombozyten (TASS = […] Vorinkubation mit 100μM […] = nicht […].

[1] = PMN+T (platelets not preincubated with Acetylsalicylsäure)
[2] = PMN+TASS (platelets preincubated 1 h with 100 µM Acetylsalicylsäure, washed)
[3] = acute application of the flavonoid alone
[4] = flavonoid applied in combination with Acetylsalicylsäure

Row | Compound | Herzleistung [% der initialen Leistung] [1] | Interstitielles Volumen [1] | Koronarfluß [% des Basalflusses] [1] | Herzleistung [% der initialen Leistung] [2] | Interstitielles Volumen [2] | Koronarfluß [% des Basalflusses] [2] | protektive Wirkung | Verschlechterung der postischämischen Funktionsdaten (ΔP/Δt; interstitielles Volumen; Koronarfluß) [3] | Verschlechterung der postischämischen Funktionsdaten (ΔP/Δt; interstitielles Volumen; Koronarfluß) [4]
1 | O=C1CCOc2ccccc21 [4-Chromanon, reference compound] | 27 % der initialen Leistung and 29 % der initialen Leistung and 38 % der initialen Leistung and 31 % der initialen Leistung and 17 % der initialen Leistung and 22 % der initialen Leistung | 373 µL/g and 348 µL/g and 354 µL/g and 318 µL/g and 356 µL/g | 44 % des Basalflusses and 19 % des Basalflusses and 35 % des Basalflusses and 26 % des Basalflusses and 29 % des Basalflusses | 79 % der initialen Leistung and 81 % der initialen Leistung and 74 % der initialen Leistung and 71 % der initialen Leistung and 69 % der initialen Leistung and 78 % der initialen Leistung | 155 µL/g and 148 µL/g and 168 µL/g and 161 µL/g and 165 µL/g | 88 % des Basalflusses and 74 % des Basalflusses and 79 % des Basalflusses (2×) and 81 % des Basalflusses and 82 % des Basalflusses | keine protektive Wirkung |  | 
2 | O=c1cc(-c2ccccc2)oc2ccccc12 [Flavon, reference compound] | 31 % der initialen Leistung (2×) and 18 % der initialen Leistung and 35 % der initialen Leistung and 29 % der initialen Leistung | 344 µL/g and 389 µL/g and 388 µL/g and 358 µL/g and 346 µL/g | 33 % des Basalflusses and 19 % des Basalflusses and 31 % des Basalflusses and 28 % des Basalflusses and 29 % des Basalflusses | 78 % der initialen Leistung and 81 % der initialen Leistung and 69 % der initialen Leistung and 82 % der initialen Leistung and 83 % der initialen Leistung | 129 µL/g and 153 µL/g and 145 µL/g and 148 µL/g and 169 µL/g | 88 % des Basalflusses and 77 % des Basalflusses and 73 % des Basalflusses and 81 % des Basalflusses and 87 % des Basalflusses | keine protektive Wirkung |  | 
3 | O=C1C[C@@H](c2ccc(O)cc2)Oc2cc(O)cc(O)c21 [Naringenin] | 63 % der initialen Leistung and 49 % der initialen Leistung and 54 % der initialen Leistung and 69 % der initialen Leistung and 68 % der initialen Leistung | 169 µL/g and 175 µL/g and 189 µL/g and 205 µL/g and 198 µL/g | 57 % des Basalflusses and 55 % des Basalflusses and 63 % des Basalflusses and 51 % des Basalflusses and 45 % des Basalflusses and 46 % des Basalflusses | 90 % der initialen Leistung and 97 % der initialen Leistung and 84 % der initialen Leistung and 94 % der initialen Leistung and 82 % der initialen Leistung and 89 % der initialen Leistung | 98 µL/g and 117 µL/g and 107 µL/g and 109 µL/g and 102 µL/g | 107 % des Basalflusses and 98 % des Basalflusses and 93 % des Basalflusses and 92 % des Basalflusses and 89 % des Basalflusses and 101 % des Basalflusses |  | abgeschwächt | vollständig aufgehoben
4 | O=c1c(O)c(-c2ccc(O)c(O)c2)oc2cc(O)cc(O)c12 [Quercetin] | 66 % der initialen Leistung and 69 % der initialen Leistung and 58 % der initialen Leistung and 44 % der initialen Leistung and 70 % der initialen Leistung | 159 µL/g and 178 µL/g and 181 µL/g and 185 µL/g and 162 µL/g | 61 % des Basalflusses and 49 % des Basalflusses (2×) and 55 % des Basalflusses and 62 % des Basalflusses and 40 % des Basalflusses | 82 % der initialen Leistung and 86 % der initialen Leistung and 90 % der initialen Leistung and 85 % der initialen Leistung and 94 % der initialen Leistung | 108 µL/g and 113 µL/g and 107 µL/g and 104 µL/g and 125 µL/g and 118 µL/g | 101 % des Basalflusses and 107 % des Basalflusses and 89 % des Basalflusses and 95 % des Basalflusses and 91 % des Basalflusses |  | abgeschwächt | vollständig aufgehoben
